This note sets out measurements from patent US5017577A, “Methods for treating viral infection” (Burroughs Wellcome Co., priority 1989, dated 1991).

One assay deals with AIDV. The assay can be described thus: Anti-retroviral activity against AIDV. Set-up: species or system AIDV (HTLV III). To be noted: in words.
As for `O=C(O)/C=C/c1ccc(-c2nc3c(=O)n(Cc4ccccc4)c(=O)n(Cc4ccccc4)c3[nH]2)cc1` [Example 15, (E)-4-(1,3-dibenzyl-1,2,3,6-tetrahydro-2,6-dioxo-9H-purin-8 yl) cinnamic acid], the “anti-retroviral activity, especially against AIDV” value was “especially potent activity against AIDV”.

A further assay concerns the target T1, adenosine (purine) receptors (Cavia porcellus, UniProt P47745).
T1 construct: Ilea were removed from sacrificed guinea pigs; from tissue; host or cells: guinea pig ileum
T1 sequence (P47745 1-326): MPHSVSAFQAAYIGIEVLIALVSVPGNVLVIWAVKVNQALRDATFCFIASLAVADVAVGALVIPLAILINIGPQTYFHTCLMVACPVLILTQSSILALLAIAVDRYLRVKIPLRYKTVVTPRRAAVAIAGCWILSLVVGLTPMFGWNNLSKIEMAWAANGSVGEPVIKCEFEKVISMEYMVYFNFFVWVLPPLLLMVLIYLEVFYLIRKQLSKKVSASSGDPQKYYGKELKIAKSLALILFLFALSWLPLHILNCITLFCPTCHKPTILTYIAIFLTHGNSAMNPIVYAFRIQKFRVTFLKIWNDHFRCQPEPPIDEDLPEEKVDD
Briefly: Guinea pig ileum twitch test: purine receptor antagonism against 2-chloroadenosine (Schild regression). To be noted: agonist 2-chloroadenosine. The method, then: Accordingly, a representative number of compounds of the present invention were tested for their ability to antagonise the purine receptors using the guinea pig ileum test system.
Ilea were removed from sacrificed guinea pigs and placed in organ baths containing oxygenated Krebs-Henseleit buffer. After equilibration, the ilea were stimulated to contract (twitch contraction) using an electrical field-stimulus of 0.1 Hz, 0.05 ms duration and maximal voltage. Under these conditions, the twitch contraction results from the release of acetylcholine.
Concentration response curves to the purine agonist, 2-chloroadenosine, were determined first in the absence and then in the presnce of multiple concentrations of the compounds of the invention. One concentration of each compound was used per tissue. Quantification of purine receptor antagonism was accomplished using the Schild regression technique, i.e. plots of log (dose-ratio-l) vs log compound concentration, and the pA2 determined by regression of the data points to the x-intercept, where log (dose-ratio-l) is zero.
For the compound `CCCn1c(=O)c2nc(-c3ccc(/C=C/C(=O)O)cc3)[nH]c2n(CCC)c1=O` [Example 6, (E)-4-(1,2,3,6-tetrahydro-2,6-dioxo-1,3-dipropyl-9H-purin-8-yl)cinnamic acid], the “pA2 guinea pig ileum (slope): slope of Schild regression” value (shortened to “pA2 guinea pig ileum (slope): slope”) is 0.9.
With `O=C(O)/C=C/c1ccc(-c2nc3c(=O)n(Cc4ccccc4)c(=O)n(Cc4ccccc4)c3[nH]2)cc1` [Example 15, (E)-4-(1,3-dibenzyl-1,2,3,6-tetrahydro-2,6-dioxo-9H-purin-8 yl) cinnamic acid], the “pA2 guinea pig ileum (slope): slope” value stood at 0.9.
Consider `CC(C)Cn1c(=O)c2nc(-c3ccc(/C=C/C(=O)O)cc3)[nH]c2n(CC(C)C)c1=O` [Example 19, (E)-4-(1,2,3,6-tetrahydro-1,3-diisobutyl-2,6-dioxo-9H-purin-8-yl) cinnamic acid], for which the “pA2 guinea pig ileum (slope): slope” value is reported as 1.0.
With `Cn1c(=O)c2nc(-c3ccc(/C=C/C(=O)O)cc3)[nH]c2n(Cc2ccccc2)c1=O` [Example 18, (E)-4-(3-benzyl-1,2,3,6-tetrahydro-1-methyl-2,6-dioxo-9H-purin-8-yl) cinnamic acid], the “pA2 guinea pig ileum (slope): slope” value came out at 0.9.
Still for that read-out and setting: under `CCCCn1c(=O)c2nc(-c3ccc(/C=C/C(=O)O)cc3)[nH]c2n(CCCC)c1=O` [Example 14, (E)-4-(1,3-dibutyl-1,2,3,6-tetrahydro-2,6-dioxo-9H-purin-8-yl)cinnamic acid] stands 1.0; under `CCCn1c(=O)n(C)c(=O)c2nc(-c3ccc(/C=C/C(=O)O)cc3)[nH]c21` [Example 11, (E)-4-(1,2,3,6-tetrahydro-1-methyl-2,6-dioxo-3-propyl-9H-purin-8-yl)cinnamic acid], 1.0.
